Tests used:
[1] = tested on: CCl4-induced liver fibrosis in male BALB/c mice; assay: Carbon Tetrachloride (CCl4)-induced liver fibrosis model; type: in vivo
Procedure: This study is performed to evaluate the effects of calpain compounds disclosed herein on a Carbon Tetrachloride (CCl4)-induced liver fibrosis in male BALB/c mice. Liver fibrosis is induced in mice by the administration of CCl4 twice weekly for four weeks. CCl4 administered animals are treated with compounds disclosed herein in a therapeutic treatment mode on day 14 post initiation of CCl4 injection and continued until study termination. Study is terminated 96 hours following the last CCl4 administration, i.e., on day 32 post CCl4 administration. Compounds described herein show an improvement in fibrosis score and no effect on liver enzymes, liver weight or body weight compared to vehicle.
Carbon tetrachloride (CCl4) is purchased from Sigma (cat #319961). To induce liver fibrosis, mice are administered CCl4 (1:1, CCl4:mineral oil) via intraperitoneal (ip) injection at a dose volume of 1 ml/kg body weight. On every CCl4 administration day animals are weighed prior to administration of CCl4 and the dose volume is adjusted as per body weight of individual animal. Animals are administered CCl4: mineral oil twice weekly i.e. every Monday and Thursday for four weeks, 2 hours post morning treatment. The final CCl4 injection is received on day 28 post first CCl4 injection.
Animals are bled via sub-mandibular route on day-4 prior to study initiation, and on day 13, post CCl4 administration, a day before the therapeutic treatment began. Plasma is prepared and stored at −20° C. until it is analyzed. Upon study termination day 32 post CCl4 administration, animals are bled via cardiac puncture. Serum is prepared and stored at −20° C. until shipped to contract company for liver enzyme panel analysis. […]
The procedures described above were followed using Compound 405 as a test compound administered at 30 mg/kg BID or 100 mg/kg BID. Body weights were measured prior to every CCl4 administration. […] Average liver weight of 2.24+/−0.06 g was recorded in animals treated with vehicle compared to no CCl4 administered control mice 1.45+/−0.03 g (p<0.0001).

[2] = tested on: CDAHFD rat model of non-alcoholic steatohepatitis (NASH); assay: Rat choline-deficient, amino acid-defined high fat diet (CDAHFD) model of NASH; type: in vivo, Male Wistar rats; settings: for mRNA expression of CTGF: MC BID 42.89±32.82; for mRNA expression of IL-6: MC BID 54.89±47.23; for mRNA expression of Colla1: MC BID 106.6±59.97; for SMA (Acta2) protein expression: MC QD 5.82±0.67
Excerpt: A rat choline-deficient, amino acid-defined high fat diet (CDAHFD) model of non-alcoholic steatohepatitis (NASH) reproduces key features of the human disease. This model was used to examine the anti-fibrotic effects of Compound 405 (shown in Table 1a) in the CDAHFD rat model.
Male Wistar rats (Charles River Laboratories) were randomly assigned to receive the following treatments: Group 1 (n=8) served as a healthy control and were fed normal chow for 12 weeks; Group 2 (n=8) served as a disease control and was fed a CDAHFD and received once daily (QD) oral gavage treatment with vehicle Methylcellulose (MC) beginning at week 5 post CDAHFD, Group 3 (n=8) served as a disease control and was fed a CDAHFD and received twice daily (BID) oral gavage treatment with vehicle Methylcellulose (MC) beginning at week 5 post CDAHFD, Group 4 (n=8) was fed a CDAHFD and received QD oral gavage treatment with Compound 405 (200 mg/kg) beginning at week 5 post CDAHFD, Group 5 (n=8) was fed a CDAHFD and received BID oral gavage treatment with Compound 405 (100 mg/kg) beginning at week 5 post CDAHFD, Group 6 (n=8) was fed a CDAHFD and received QD oral gavage treatment with Compound 405 (60 mg/kg) beginning at week 5 post CDAHFD, Group 7 (n=8) was fed a CDAHFD and received BID oral gavage treatment with Compound 405 (30 mg/kg) beginning at week 5 post CDAHFD. At the end of the study (12 weeks), liver tissue and serum was collected for further analysis. A part of the liver was used for histological analysis and the spare liver from each individual animal was snap frozen on liquid nitrogen and stored at −80° C. Serum was collected to measure ALT,

[3] = BID oral 100 mg/kg and 30 mg/kg, serum
[4] = QD oral 200 mg/kg and 60 mg/kg, serum

Which “Fibrosis score (Picrosirius Red-stained liver sections, polarized light)” value ([1]; CCl4-treated mice, oral 30 mg/kg BID or 100 mg/kg BID from day 14, day 32) does the source give for Cc1nc(-c2ccccc2F)c(C(=O)NC(Cc2ccccc2)C(=O)C(N)=O)o1 (centres unmarked) [Compound 405] here?
Its value is “statistically significant reduction”.

And the “length and thickness of the collagen fibers (PSR-stained liver sections)” value ([1]; CCl4-treated mice, oral BID from day 14)?
The value was “decrease”.

What about the fibrosis ([1]; dosed therapeutically at 100 mg/kg, twice a day) of the same compound?
The fibrosis was “significantly reduced”.

And the “mRNA expression of CTGF” value ([2]; 30 mg/kg BID, p<0.01)?
Its value is 3.55±1.35.

What about the “mRNA expression of IL-6” value ([2]; 30 mg/kg BID, p<0.01) of the same compound?
The value was 2.80±1.35.

And the “mRNA expression of SMA” value ([2]; 30 mg/kg BID, MC BID 73.65±37.51, p<0.01)?
The value was 11.46±2.02.

And the “mRNA expression of Colla1” value ([2]; 30 mg/kg BID, p<0.01)?
The value was 13.37±2.53.

What about the Liver Weight (as a percent of total weight) ([2]; 30 mg/kg BID, p<0.05) of the same compound?
The Liver Weight (as a percent of total weight) was 6.6 ± 0.3%.

What about the “fibrosis as measured by CPA” value ([2]; 60 mg/kg QD) of the same compound?
Its value is “did not significantly decrease”.

What about the “fibrosis as measured by hydroxyproline” value ([2]; 60 mg/kg QD) of the same compound?
The value was “did not significantly decrease”.

And the “SMA (Acta2) protein expression” value ([2]; 60 mg/kg QD, p<0.01)?
Its value is 2.40±1.16%.

What about the collagen deposition ([2]; 100 mg/kg BID) of the same compound?
The collagen deposition was “reduced”.

And the “SMA (Acta2) protein expression in livers” value ([2]; 100 mg/kg BID, MC BID 7.08±1.36%, p<0.01)?
The value was 2.01±1.14%.

And the “mRNA expression of CTGF” value ([2]; 100 mg/kg BID, p<0.05)?
The value was 3.84±2.24.

What about the “mRNA expression of IL-6” value ([2]; 100 mg/kg BID, p<0.01) of the same compound?
The value was 15.81±9.01.

What about the “mRNA expression of Colla1” value ([2]; 100 mg/kg BID, p<0.01) of the same compound?
The value was 35.76±33.84.

What about the hydroxyproline ([2]; 100 mg/kg BID, MC BID 706.9±173.5 nmol/L, p<0.05) of the same compound?
The hydroxyproline was 458.2 ± 146 nmol/L.

What about the Liver Weight (as a percent of total weight) ([2]; 100 mg/kg BID, p<0.05) of the same compound?
Its Liver Weight (as a percent of total weight) is 6.6 ± 0.8%.

And the “SMA (Acta2) protein expression” value ([2]; 200 mg/kg QD, p<0.01)?
Its value is 1.7±0.58%.

What about the “collagen proportional area (CPA)” value ([2]; 200 mg/kg QD, MC QD 11.28±3.50%, liver at 12 weeks) of the same compound?
The value was 6.08±1.69%.

And the hydroxyproline ([2]; 200 mg/kg QD, MC QD 731.3±165.9 nmol/L, p<0.05)?
Its hydroxyproline is 495.1 ± 113.9 nmol/L.

What about the “pro-fibrotic or inflammatory gene expression (mRNA)” value ([2]; 200 mg/kg or 60 mg/kg QD) of the same compound?
The value was “did not significantly decrease”.

And the “spleen weight (as a percent of total weight)” value ([2]; BID oral 100 mg/kg and 30 mg/kg)?
Its value is “did not affect”.

What about the body weight ([2]; BID oral 100 mg/kg and 30 mg/kg, weeks 5-12) of the same compound?
The body weight was “did not affect”.

What about the albumin levels [2, 3] of the same compound?
Its albumin levels is “did not alter”.

What about the “level of blood transaminases (U/L) including ALT, AST, and ALP vs MC BID” value [2, 3] of the same compound?
Its value is “did not change”.

And the Total bilirubin ([2]; BID study, serum)?
The Total bilirubin was “did not change significantly”.

And the “expression of Calpain1” value ([2]; BID treatment)?
The value was “did not change”.

What about the “expression of Calpain 2” value ([2]; BID treatment) of the same compound?
The value was “did not change”.

What about the “liver fat content (histological analysis of steatosis)” value ([2]; BID treatment) of the same compound?
Its value is “did not change”.

What about the “body weight relative to vehicle (methyl cellulose) control” value ([2]; QD oral 200 mg/kg and 60 mg/kg, weeks 5-12) of the same compound?
The value was “did not alter”.

What about the albumin levels [2, 4] of the same compound?
The albumin levels was “did not change”.

What about the “level of blood transaminases (ALT, AST, ALP) vs MC QD” value [2, 4] of the same compound?
The value was “did not alter”.

And the Total bilirubin ([2]; QD study, serum)?
Its Total bilirubin is “did not change significantly”.

What about the “liver fat content (histological analysis of steatosis)” value ([2]; QD treatment) of the same compound?
The value was “did not change”.
